46 molecules from ChEMBL document CHEMBL2303647, “Data associated with the publication PLoS ONE, 8(3), e57888, (2013) PMID: 23505445. Compounds: GSK PKIS; Assays: NIH NCATS” can be followed below.

In assay [1] the target is T1, Coelenterazine h 2-monooxygenase (Renilla reniformis, UniProt P27652).
T1 sequence (P27652 whole entry): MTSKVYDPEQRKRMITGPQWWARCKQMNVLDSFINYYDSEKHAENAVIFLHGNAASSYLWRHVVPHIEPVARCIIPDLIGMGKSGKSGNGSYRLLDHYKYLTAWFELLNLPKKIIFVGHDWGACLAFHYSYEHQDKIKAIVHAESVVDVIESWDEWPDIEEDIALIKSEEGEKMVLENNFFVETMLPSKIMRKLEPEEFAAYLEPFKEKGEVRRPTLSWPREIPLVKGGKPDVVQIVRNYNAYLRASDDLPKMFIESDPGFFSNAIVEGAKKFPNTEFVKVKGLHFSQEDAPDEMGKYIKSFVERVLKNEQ
Description: GSK_PKIS: Inhibition of Sea Pansy Luciferase (Data from PubChem: AID 652015) [NIH NCATS]

Assay [2] addresses Luciferin 4-monooxygenase (Photinus pyralis, UniProt P08659).
Description: GSK_PKIS: Inhibition of Firefly Luciferase (Data from PubChem: AID 652016) [NIH NCATS]

Chain of Luciferin 4-monooxygenase (P08659 whole entry): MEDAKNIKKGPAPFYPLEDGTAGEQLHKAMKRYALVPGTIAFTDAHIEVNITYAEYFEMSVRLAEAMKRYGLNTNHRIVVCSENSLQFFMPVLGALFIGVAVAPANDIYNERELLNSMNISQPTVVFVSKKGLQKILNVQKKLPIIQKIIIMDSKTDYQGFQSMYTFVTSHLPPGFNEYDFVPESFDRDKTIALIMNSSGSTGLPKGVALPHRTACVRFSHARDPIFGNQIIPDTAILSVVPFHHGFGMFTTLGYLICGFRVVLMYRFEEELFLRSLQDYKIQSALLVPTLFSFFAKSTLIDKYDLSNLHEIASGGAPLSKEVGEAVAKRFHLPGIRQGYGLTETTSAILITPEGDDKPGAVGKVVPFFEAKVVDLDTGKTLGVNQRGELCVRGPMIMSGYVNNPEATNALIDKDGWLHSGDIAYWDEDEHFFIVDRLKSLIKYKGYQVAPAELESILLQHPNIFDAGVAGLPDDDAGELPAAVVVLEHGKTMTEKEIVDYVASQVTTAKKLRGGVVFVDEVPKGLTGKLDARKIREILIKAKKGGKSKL

Consider `Cl.NS(=O)(=O)c1ccc(N/N=C2\C(=O)Nc3cccc(CCc4ccncc4)c32)cc1` [GW352430A], for which the AC50 result in assay [1] and in assay [2] was “Phenotype: Inactive; Curve_Description: None” in each case.

With `CC(C)=Cc1cccc2c1/C(=N/Nc1ccc(S(N)(=O)=O)cc1)C(=O)N2` [GW396574X], the half-maximal activity concentration (AC50) in assay [1] (read-out: AC50) is 20.6 µM; in assay [2], “Phenotype: Inactive; Curve_Description: None”.

`COC(=O)c1ccc2c(c1)C(=Cc1cc(Br)c(O)c(Br)c1)C(=O)N2` [GW405841X]: the results for the AC50 in assay [1] (read-out: AC50) and in assay [2] (read-out: AC50) were 13 µM and 20.6 µM, respectively.

In the case of `O=C1Nc2ccc(C(=O)c3ccco3)cc2C1=Cc1cc(Cl)c(O)c(Cl)c1` [GW406108X], the figures for the concentration at half-maximal activity (AC50) in assay [1] (read-out: AC50) and in assay [2] (read-out: AC50) were 16.3 µM and 18.3 µM, respectively.

Take `COC(=O)c1cncc(/C=C/c2c(C)cc(O)cc2C)c1` [GW406731X]: the AC50 entry in assay [1] and in assay [2] was “Phenotype: Inactive; Curve_Description: None” each time.

With `Nc1nc(-c2ccc3c(c2)C(=Cc2cc(Br)c(O)c(Br)c2)C(=O)N3)cs1` [GW407323A], the concentration at half-maximal activity (AC50) in assay [1] (read-out: AC50) stood at 20.6 µM; in assay [2] (read-out: AC50), 29.1 µM.

As to `COc1cc2ncnc(Nc3ccc(C)c(O)c3)c2cc1OC.Cl` [GW410563A], the half-maximal activity concentration (AC50) result in assay [1] and in assay [2] was “Phenotype: Inactive; Curve_Description: None” in each case.

For the molecule `CN(C)c1ccc2c(c1)/C(=C/Nc1ccc(S(N)(=O)=O)cc1)C(=O)N2` [GW416469X], the AC50 in assay [1] (read-out: AC50) was 5.8 µM; in assay [2], “Phenotype: Inactive; Curve_Description: None”.

Take `CC(C)COC(=O)c1ccc2c(c1)/C(=C/Nc1ccc(S(N)(=O)=O)cc1)C(=O)N2` [GW416981X]: the AC50 entry in assay [1] and in assay [2] was “Phenotype: Inactive; Curve_Description: None” each time.

As for `Cc1cc(O)cc(C)c1/C=C/c1cncc(C(=O)N(C)C)c1` [GW427984X], the half-maximal activity concentration (AC50) entry in assay [1] and in assay [2] was “Phenotype: Inactive; Curve_Description: None” each time.

Take `O=C1Nc2ccc(-c3cccnc3)cc2C1=Cc1cc(Br)c(O)c(Br)c1` [GW429374A]: the AC50 came out at 18.3 µM in assay [1] (read-out: AC50) and 32.6 µM in assay [2] (read-out: AC50).

`CNC(=O)Oc1cc(C)c(/C=C/c2cncc(C(=O)NC)c2)c(C)c1` [GW432441X]: the AC50 result in assay [1] was “Phenotype: Inactive; Curve_Description: None”; in assay [2] (read-out: AC50) it was 29.1 µM.

For the molecule `Fc1ccc(-c2nn3ccccc3c2-c2ccncc2)cc1` [GW434756X], the half-maximal activity concentration (AC50) in assay [1] (read-out: AC50) worked out at 23.1 µM; in assay [2] (read-out: AC50), 1.16 µM.

For the molecule `Cc1cc(O)cc(C)c1/C=C/c1cncc(C(N)=O)c1` [GW435821X], the AC50 result in assay [1] and in assay [2] was “Phenotype: Inactive; Curve_Description: None” in each case.

Consider `Cc1cc(O)cc(C)c1/C=C/c1cncc(C(=O)OC(C)(C)C)c1` [GW439255X], for which the AC50 entry in assay [1] and in assay [2] was “Phenotype: Inactive; Curve_Description: None” each time.

Consider `Cc1ccc(O)cc1Nc1ccnc2cc(-c3ccccn3)ccc12` [GW440139A], for which the figures for the AC50 in assay [1] (read-out: AC50) and in assay [2] (read-out: AC50) were 23.1 µM and 20.6 µM, respectively.

Take `Cn1cc(C=C2C(=O)Nc3cccnc32)c2ccccc21` [GW441756X]: the AC50 in assay [1] (read-out: AC50) was 20.6 µM; in assay [2] (read-out: AC50), 14.6 µM.

With `Cc1cc(O)cc(C)c1/C=C/c1cncc(-c2nn[nH]n2)c1.Cl` [GW441806A], the figures for the AC50 entry in assay [1] and in assay [2] (read-out: AC50) were “Phenotype: Inactive; Curve_Description: None” and 29.1 µM, respectively.

On to `COc1ccccc1-c1cc(/C=C2\C(=O)Nc3ncc(Br)cc32)cc(Br)c1O` [GW442130X], for which the AC50 in assay [1] (read-out: AC50) amounted to 8.19 µM; in assay [2] (read-out: AC50), 41.1 µM.

On to `CNC(=O)c1cncc(/C=C/c2c(C)cccc2C)c1` [GW445012X], for which the concentration at half-maximal activity (AC50) entry was “Phenotype: Inactive; Curve_Description: None” in assay [1] and 20.6 µM in assay [2] (read-out: AC50).

On to `CNC(=O)c1cncc(/C=C/c2c(Cl)cccc2Cl)c1` [GW445014X], for which the AC50 in assay [1] (read-out: AC50) stood at 23.1 µM; in assay [2] (read-out: AC50) it was 16.3 µM.

Take `CNC(=O)c1cncc(/C=C/c2ccccc2C)c1` [GW445015X]: the AC50 entry in assay [1] and in assay [2] was “Phenotype: Inactive; Curve_Description: None” throughout.

For the molecule `CNC(=O)c1cncc(/C=C/c2ccccc2Cl)c1` [GW445017X], the values for the concentration at half-maximal activity (AC50) entry in assay [1] and in assay [2] (read-out: AC50) were “Phenotype: Inactive; Curve_Description: None” and 9.19 µM, respectively.

As for `CCc1cccc(CC)c1/C=C/c1cncc(C(=O)NC)c1` [GW450241X], the figures for the concentration at half-maximal activity (AC50) entry in assay [1] and in assay [2] (read-out: AC50) were “Phenotype: Inactive; Curve_Description: None” and 36.6 µM, respectively.

Take `Cc1cc(-c2ccco2)cc(C)c1/C=C/c1cncc(-c2nn[nH]n2)c1.Cl` [GW458344A]: the AC50 result in assay [1] is “Phenotype: Inactive; Curve_Description: None”; in assay [2] (read-out: AC50), 20.6 µM.

As to `CS(=O)(=O)CCNCc1ccc(-c2ccc3ncnc(Nc4ccc(OCc5ccccc5)cc4)c3c2)o1.Cl` [GW458787A], the AC50 result in assay [1] was “Phenotype: Inactive; Curve_Description: None”; in assay [2] (read-out: AC50), 18.3 µM.

As to `Cc1cc(-c2ccccn2)cc(C)c1/C=C/c1cncc(-c2nn[nH]n2)c1.Cl` [GW459057A], the AC50 in assay [1] (read-out: AC50) was 32.6 µM; in assay [2], “Phenotype: Inactive; Curve_Description: None”.

With `CS(=O)(=O)CCNCc1nc(-c2ccc3ncnc(Nc4ccc(F)c(Cl)c4)c3c2)cs1.Cl` [GW461104A], the AC50 result in assay [1] and in assay [2] was “Phenotype: Inactive; Curve_Description: None” each time.

On to `COc1cc(C=NNc2ncnc3c2cnn3-c2ccccc2)ccc1O` [GW513184X], for which the AC50 entry in assay [1] and in assay [2] was “Phenotype: Inactive; Curve_Description: None” each time.

Regarding `CCn1c(-c2nonc2N)nc2ccccc21` [GW549034X], the half-maximal activity concentration (AC50) result in assay [1] and in assay [2] was “Phenotype: Inactive; Curve_Description: None” each time.

Consider `c1ccc(Nc2ncc(-c3ccccc3)o2)cc1` [GW549390X], for which the half-maximal activity concentration (AC50) result was “Phenotype: Inactive; Curve_Description: None” in assay [1] and 0.259 µM in assay [2] (read-out: AC50).

`Cc1ccc(O)cc1Nc1ccnc2ccc(S(C)(=O)=O)cc12` [GW559768X]: the AC50 entry was “Phenotype: Inactive; Curve_Description: None” in assay [1] and 41.1 µM in assay [2] (read-out: AC50).

On to `N#Cc1ccc2c(-c3ccnc(NC4CC4)n3)c(-c3ccc(F)cc3)nn2c1` [GW561436X], for which the half-maximal activity concentration (AC50) entry was “Phenotype: Inactive; Curve_Description: None” in assay [1] and 46.1 µM in assay [2] (read-out: AC50).

Consider `CS(=O)(=O)CCNCc1coc(-c2ccc3ncnc(Nc4ccc(OCc5ccccc5)cc4)c3c2)c1.Cl` [GW566221A], for which the AC50 result in assay [1] is “Phenotype: Inactive; Curve_Description: None”; in assay [2] (read-out: AC50), 13 µM.

For the molecule `CS(=O)(=O)CCNCc1ccc(-c2ccc3ncnc(Nc4ccc(OCc5cccc(C(F)(F)F)c5)cc4)c3c2)o1.Cl` [GW567808A], the results for the AC50 entry in assay [1] and in assay [2] were “Phenotype: Activator; Curve_Description: None” and “Phenotype: Inactive; Curve_Description: None”, respectively.

In the case of `Nc1nccc(-c2c(-c3ccc(F)cc3)nn3cc(C(F)(F)F)ccc23)n1` [GW568326X], the half-maximal activity concentration (AC50) result in assay [1] and in assay [2] was “Phenotype: Inactive; Curve_Description: None” in each case.

`CS(=O)(=O)CCNCc1ccoc1-c1ccc2ncnc(Nc3ccc(OCc4ccccc4)cc3)c2c1.Cl` [GW568377A]: the concentration at half-maximal activity (AC50) entry was “Phenotype: Inactive; Curve_Description: None” in assay [1] and 20.6 µM in assay [2] (read-out: AC50).

Take `O=C(O)/C=C/C(=O)O.OCCCNc1nccc(-c2c(-c3ccc(F)cc3)nn3cc(C(F)(F)F)ccc23)n1` [GW569293E]: the AC50 entry in assay [1] is “Phenotype: Inactive; Curve_Description: None”; in assay [2] (read-out: AC50), 32.6 µM.

On to `CS(=O)(=O)CCNCc1nc(-c2ccc3ncnc(Nc4ccc(OCc5cccc(C(F)(F)F)c5)cc4)c3c2)cs1.Cl` [GW569530A], for which the concentration at half-maximal activity (AC50) result in assay [1] and in assay [2] was “Phenotype: Inactive; Curve_Description: None” each time.

With `NS(=O)(=O)c1ccc(Nc2ncc(-c3ccccc3)o2)cc1` [GW572399X], the AC50 result in assay [1] and in assay [2] was “Phenotype: Inactive; Curve_Description: None” throughout.

As to `CCN(CC)S(=O)(=O)c1ccc(OC)c(Nc2ncc(-c3ccccc3)o2)c1` [GW572401X], the AC50 entry in assay [1] and in assay [2] was “Phenotype: Inactive; Curve_Description: None” each time.

In the case of `N#Cc1c(NC(=O)c2ccccc2F)sc2c1CCCC2` [GW572738X], the half-maximal activity concentration (AC50) result in assay [1] was “Phenotype: Inactive; Curve_Description: None”; in assay [2] (read-out: AC50) it was 0.819 µM.

On to `CS(=O)(=O)CCNCc1ccc(-c2ccc3ncnc(Nc4ccc(OCc5ccccc5)c(C(F)(F)F)c4)c3c2)o1.Cl` [GW574782A], for which the AC50 entry in assay [1] and in assay [2] was “Phenotype: Inactive; Curve_Description: None” each time.

Turning to `CS(=O)(=O)CCNCc1ccc(-c2ccc3ncnc(Nc4ccc(OCc5ccccc5)c(Cl)c4)c3c2)o1.Cl` [GW574783B], the half-maximal activity concentration (AC50) entry in assay [1] was “Phenotype: Inactive; Curve_Description: None”; in assay [2] (read-out: AC50) it was 20.6 µM.

As to `COc1ccc(Nc2ncc(-c3ccccc3)o2)cc1OC.Cl` [GW575533A], the values for the AC50 entry in assay [1] and in assay [2] (read-out: AC50) were “Phenotype: Inactive; Curve_Description: None” and 5.8 µM, respectively.

With `Cc1ccc(Nc2ccnc(Nc3cccc(C(N)=O)c3)n2)cc1O.Cl` [GW575808A], the concentration at half-maximal activity (AC50) entry in assay [1] is “Phenotype: Inactive; Curve_Description: None”; in assay [2] (read-out: AC50), 1.46 µM.

By AC50 is commonly meant the concentration giving half of the maximal activity seen.
